Experiments:
[1] = test system: Methicillin-sensitive Staphylococcus aureus strain ATCC 29213; assay: In vivo efficacy, peritonitis model of S. aureus infection; conditions: IV, 20% CD + 2H2T, IP infection, inoculum 8.7 log10, female Swiss albino mice, 3 days post-infection
From the text: The concept of studying the in vivo effect of an antibacterial compound by treating intraperitoneally infected mice was introduced in 1911 for optochin against pneumococci (Morgenroth and Levy, 1911). The popularity of the model comes from the ease of its use with short-duration experiments, reproducible infections and simple end-points.
Methicillin-sensitive Staphylococcus aureus strain ATCC 29213 was used to infect female Swiss albino mice. A Brain Heart Infusion (BHI) broth bacterial culture was inoculated the day before infection, incubated at 37° C. overnight and diluted in fresh BHI broth to the desired concentration. I.p. injection of ˜5×10^8-5×10^9 colony forming units (CFU) was performed in either of the lateral lower quadrants of the abdomen. After inoculation, mice were kept in their cages under daily observation for development of signs of infection or death. For the treatment of mice, both the p.o. and i.v. routes were used and each mouse was treated individually by gavage or by i.v. injection. Both solutions (p.o. and i.v.) and suspensions (p.o.) were tested in this model. The parameter used for monitoring the course of infection and the effect of treatment was death or survival of the animals over 3 days post-infection. […]

[2] = target: S. aureus ATCC 29213 FabI (Staphylococcus aureus (strain MRSA252), UniProt Q6GI75); assay: Staphylococcus aureus FabI enzyme inhibition assay; format: biochemical; conditions: pH 6.5, 30 minutes at room temperature
Method: FabI enzyme inhibition assays were carried out in half-area, 384-well microtitre plates. Compounds were evaluated in 40-μl assay mixtures containing 100 mM NaADA, pH 6.5 (ADA=N-[2-acetamido]-2iminodiacetic acid), 250 μM crotonoyl-CoA, 625 μM NADH and 50 μg/ml S. aureus ATCC 29213 FabI. Inhibitors were typically varied over the range of 50 to 0.39 μM. The reaction mixtures were incubated for 30 minutes at room temperature and the reaction was stopped by adding 200 mM Tris buffer (pH 9.0) to create a pH-shift. The consumption of NADH was monitored by measuring the change in absorbance at […]. By comparing sample readings to those of negative (absence of compound) and positive (absence of enzyme) controls, the percent inhibition of enzymatic activity of the compounds was determined. A best-fit curve is fitted by a minimum of squares method. From this an IC50-value (expressed in μg/ml), resulting in 50% inhibition of enzymatic activity, was obtained.

With `O=C1CCc2cc(/C=C/C(=O)N3C[C@@H]4CC(c5ccccc5)=C[C@@H]4C3)cnc2N1` (single isomer, unassigned) [compound 14] the “% Survival” value ([1]; QD 2.5 mpk) was 75%, the “% Survival” value ([1]; QD 5 mpk) was 100% and the “FabI IC50” value [2] was 0.40 µg/mL.

Source: patent US9617262B2, “Antibacterial cyclopental[C]pyrrole substituted 3,4-dihydro-1H-[1,8]naphthyridinones” (Janssen Sciences Ireland UC, priority 2011, dated 2017)
